Read-outs that look alike come from different tables or passages of the source.
Legend:
UM-SCC-22A xenografts [1] = test system: UM-SCC-22A xenografts
Description: A) Upper Panel: In vivo therapeutic efficacy of L-t-C6-Pyr-Cer in combination with GMZ was determined in SKID mice harboring the UM-SCC-22A xenografts implanted in both flanks. The animals were treated with L-t-C6-Pyr-Cer and GMZ at 40 mg/kg/each every 4 days for 20 days. […] In these experiments, each group contained 6 mice, harboring 12 tumors, in this study. Error bars represent standard deviations, and p values were calculated. […] C) The blood counts, the levels of serum enzymes, and electrolytes were analyzed in response to L-t-C6-Pyr-Cer alone or in combination with GMZ in SKID mice.
After tumors were grown to about 200-400 mm^3 (about two weeks after implantation), the mice were treated without or with chemotherapeutic agents with intraperitoneal (IP) injection (alone or in combination) at half of their maximum tolerated doses (MTD) every 4 days for 20 days. Tumor volumes and the weights of the animals were measured before each treatment, and tumor sizes were measured at the end of the study. The endpoint was tumor rate of growth and/or tumor volume, which was calculated using the formula: length×width^2×0.52. Each experiment included at least 6 mice (which harbored two SCC tumors in flanks) per each treatment, and experiments were done at least in two independent trials.

UM-SCC-1 cells = assay: MTT cell survival assay; assay type: cell-based, human; conditions: UM-SCC-1, 48 hr; read-out: IC50, growth
Description: Cell lines and culture conditions. […] Cells were grown in DMEM containing 10% FCS and 1% penicillin/streptomycin at 37° C. in 5% CO2. The Wi-38 human lung fibroblasts were obtained from American Type Culture Collection, and were grown in DMEM as described above. Adult human epidermal keratinocytes were purchased from Cascade Biologics, and were maintained in EpiLife medium with growth supplements as described by the manufacturer.
MTT cell survival assay and isobologram studies. […] Triplicate wells were used for each treatment. The final concentration of DMSO (a solvent for conventional ceramides, GMZ and DOX) in the growth medium was less than 0.1% (v/v) which has no effect on cell growth and survival. Pyridinium ceramides were dissolved in sterile water or growth medium. In short, after cells (5-10×10^3/well) were seeded in 96-well-plates for 24 hr, they were treated with increasing concentrations of ceramide analogs for an additional 48 or 96 hr. For combination treatments, ceramides and chemotherapeutic agents (gemcitabine (GMZ) or doxorubicin (DOX)) were added to the growth medium simultaneously during treatment. Isobologram plots were then constructed using IC50 values of the two agents alone or in combination obtained from MTT assays. […]

[2] = BALB/c mice
Description: The determination of MTD, and pharmacokinetic parameters, such as clearance from the serum, and bioaccumulation in various organs, of L-t-C6-Pyr-Cer in vivo. A) MTD of L-t-C6-Pyr-Cer was determined in dose escalation studies, in which BALB/c mice were treated (by IP injections) with increasing concentrations of the compound (10-150 mg/kg), dissolved in sterile saline solution, for 24 hr. […] B and C) The levels of L-t-C6-Pyr-Cer in the serum (B) or in the vital organs (C) of the BALB/c mice were measured by LC/MS after IP injection of the compound for various time points. The experiments were performed in two independent trials as duplicates, and error bars represent standard deviations.
Animal studies. […] The maximum tolerated dose (MTD) of L-t-C6-Pyr-Cer was determined by dose escalation studies. In short, 7-week-old BALB/c mice were treated with increasing concentrations of the compound for various time intervals. Possible toxicity of the compound to the vital organs of the animals was analyzed by both gross examination, and histopathology. The accumulation of the compound in vital organs and in the serum was also determined by LC/MS as described previously Koybasi S et al. J Biol Chem 2004; 279:44311-44319).

telomeres = assay: Telomere length (TRF) in tumor tissues; assay type: in vivo, human; conditions: versus untreated controls
Source text: (§1) FIG. 29. […] In (B), DNA samples obtained from tumors treated with GMZ (G), L-t-C6-Pyr-Cer (Cer), and the combination of L-t-C6-Pyr-Cer with GMZ (G/C, lanes 2-4, respectively) were compared to that of untreated (U) tumors (lane 1). Lanes 5 and 6 contain DNA samples with low (L) and high (H) molecular weight (3.9 and 10.2 kb, respectively) telomeres. In (D) The levels of hTERT protein in samples obtained from tumors treated with GMZ (G), L-t-C6-Pyr-Cer (Cer), and the combination of L-t-C6-Pyr-Cer with GMZ (G/Cer, lanes 2-4, respectively) were determined by Western blot analysis using rabbit polyclonal anti-hTERT antibody, and compared to that of untreated (U) tumors (lane 1). Lanes 5 and 6 contain samples from telomerase positive (+) and negative (−) extracts. Beta-actin levels of these samples were used as loading controls (lanes 1-6, lower panel). The data shown are representative of two independent trials, and error bars represent standard deviations.
Analysis of telomere length in tumor tissues. The measurement of telomere length was performed in total genomic DNA samples isolated from tumor tissues of the SCID mice using Telomere Restriction Fragment (TRF) Length measurement kit (Roche) by Southern blotting as described in Sundararaj, et al. J Biol Chem 2004; 279:6152-6162.

UM-SCC-22A xenografts [3] = conditions: 40 mg/kg alone or plus GMZ 80 mg/kg, 24 days
Description: Treatment of UM-SCC-22A (hypopharynx) xenografts in SCID mice. […] Once the xenograft achieved a standard volume, the animals were randomized to receive no treatment (control), LCL-194 alone (40 mg/kg), LCL-124 alone (40 mg/kg), LCL-124 (40 mg/kg) plus GMZ (80 mg/kg), GMZ (80 mg/kg)+DOX (2 mg/kg), or 5FU plus cisplatin (25 mg/kg each). Tumors were measured every 4 days for 24 days.
The compound was further tested in an animal model of SCID mouse and UM-SCC-22A xenografts (hypopharynx). Xenograft development and treatment was carried out by standard methods. Once the xenograft achieved a standard volume, the animals were randomized to receive no treatment (control), LCL-194 alone (40 mg/kg), LCL-124 alone (40 mg/kg), LCL-124 (40 mg/kg) plus GMZ (80 mg/kg), GMZ (80 mg/kg)+DOX (2 mg/kg), or 5FU plus cisplatin (25 mg/kg each). Tumors were measured every 4 days.

hTERT = hTERT mRNA (Q-PCR) and protein (Western blot) in tumor tissues; assay type: in vivo, human
Source text: as §1, with “Lanes 5 and 6 contain samples from telomerase positive (+) and negative (−) extracts. Beta-actin levels of these samples were used as loading controls (lanes 1-6, lower panel). The data shown are representative of two independent trials, and error bars represent standard deviations.” left out
Determination of telomerase activity, hTERT mRNA and protein levels in tumor tissues. Telomerase activity in tissues was measured by the PCR-based telomere repeat amplification protocol (TRAP) using TRAPeze kit (Invitrogen) which includes a 36-bp internal control to allow quantification of activity. The intensity of telomere-specific DNA bands, measured using Quantity One (BioRad) software, were normalized to the intensity of internal control bands for each sample on polyacrylamide gels for quantification. […] The protein levels of hTERT in these tumor tissue extracts (in CHAPS buffer) were determined by Western blot analysis using anti-hTERT rabbit polyclonal antibody (CalBiochem) at 1:1000 dilution. […]

UM-SCC-22A cells = assay: MTT cell survival assay and isobologram studies; assay type: cell-based, human; conditions: for IC50: UM-SCC-22A, read-out: IC50, cell growth
HNSCC tumors = assay: Endogenous ceramide and SM levels in HNSCC tumors, LC/MS; set-up: species or system SCID mice; conditions: mouse, in vivo
Source text: FIG. 28. […] The levels of C14-, C16-, C18-, C24-, C24:1-, dihydro-C16-ceramides, and sphingosine are shown in (A), and C18:1-, C20-ceramides, and dihydro-sphingosine, and sphingosine-1-phosphate levels are shown in (B). The levels of C16-, C22-, C-24 and C24:1-SM levels are shown in (C), and C14-, C18-, C18:1-, C20, C20:1, and C22:1 SM levels are shown in (D).

CCCCCCCCCCCCC/C=C/[C@H](O)[C@H](CO)NC(=O)CCCCC[n+]1ccccc1.[Br-] [LCL124, L-threo-2-N-[6′-(1″-Pyridinium)-hexanoyl]-sphingosine Bromide]
inhibition of HNSCC tumor growth (UM-SCC-22A xenografts [1]; 40 mg/kg/each IP every 4 days for 20 days): some inhibition of HNSCC tumor growth
blood counts, serum enzyme activities and electrolytes (UM-SCC-22A xenografts [1]; about 20 parameters): no detectable abnormalities
toxicity to vital organs, histopathology (UM-SCC-22A xenografts [1]; after completion of the study): no detectable toxicity
IC50 (UM-SCC-1 cells): 1 to 2 µM
doses without any detectable toxicity ([2]; 1-4 days): 10 to 80 mg/kg
maximum tolerated dose (MTD) ([2]; IP): 80 mg/kg
toxic concentrations (severe abdominal bloating, intestinal malfunction) ([2]; IP, 24 hr): ≥ 100 mg/kg
single dose resulting in toxicity (abdominal bloating, intestinal malfunction) ([2]; IP, after about 6 hr): 120 to 150 mg/mL
reduction of TRF (telomere) length in tumors (telomeres): about 500 bp
suppression of xenograft tumor growth (UM-SCC-22A xenografts [3]): can act alone or in combination with GMZ to suppress growth of chemotherapy-resistant classes of tumors
hTERT mRNA levels in tumors (hTERT; Q-PCR): decreased levels of hTERT mRNA and protein expression
hTERT protein levels in tumors (hTERT; Western blot): decreased levels of hTERT mRNA and protein expression
interaction with GMZ, isobologram (UM-SCC-22A cells; UM-SCC-22A, 100, 250 and 500 nM with GMZ, 48 hr): decreased growth synergistically
IC50 (UM-SCC-22A cells; 48 hr, listed as L-t-C6-Pyr-Cer): 1 to 2 µM
IC50 (UM-SCC-22A cells; 48 hr, listed as L-th-C6-Pyr-Cer): ~1 µM
IC50 (UM-SCC-22A cells; 96 hr, DMEM, listed as L-th-C6-Pyr-Cer): ~0.3 µM
effect on endogenous SM levels (HNSCC tumors): no significant changes were observed
effect on endogenous ceramides in tumor site (HNSCC tumors): did not cause any sustained elevation of endogenous ceramides

— patent publication US8093393B2, “Cationic ceramides, and analogs thereof, and their use for preventing or treating cancer” (MUSC Foundation for Research Development, priority 2004, dated 2012)
